The values below come from patent US10793568B2, “Hormone receptor modulators for treating metabolic conditions and disorders” (ARDELYX, INC., priority 2016, dated 2020).

Assay [1] deals with ligand binding domain of human FXR (Homo sapiens (Human), UniProt Q96RI1). Nature of the assay: FXR ligand binding assay (LanthaScreen TR-FRET, SRC2-2 peptide recruitment). The note with it: for pEC50: -log EC50, concentration required to produce 50% activation; for Emax: extent of activation relative to GW4064, read-out: % Efficacy. The method, then:
The affinity of FXR ligands for the ligand binding domain of FXR was determined using a commercially available human FXR ligand binding assay (LanthaScreen, Thermofisher Cat # PV4833). […] Binding of FXR ligands to the FXR ligand binding domain promotes binding of the fluorescein-labelled SRC2-2 peptide. This causes a FRET signal between the terbium-labelled anti-GST antibody and the fluorescein-labelled SRC peptide which are both bound to the FXR ligand binding domain.
Test compounds are dissolved in DMSO and a 3-fold serial dilution series is generated, then further diluted into assay buffer. The compounds are mixed with 5 nM GST-tagged FXR ligand binding domain, 5 nM Tb-labelled anti-GST antibody and 500 nM fluorescein-labelled SRC2-2 peptide in a pH7.4 buffer. The reaction is incubated at room temperature for 1 hour, then the FRET signal is measured as the ratio of the 520 nm/495 nm emission following excitation at 340 nm. The change in FRET signal is plotted against the test article concentration and fit to a 3-parameter logistical equation. The concentration required to produce 50% activation is expressed as pEC50 (−log EC50), and the extent of activation is expressed relative to GW4064 as % activation.
On the technique in general: TR-FRET usually uses a lanthanide donor and a delayed reading to cut background.

Assay [2] has as its target human Farnesoid X receptor ligand-binding domain/Gal4 DNA binding domain chimera (Homo sapiens (Human), UniProt Q96RI1). Nature of the assay: Cell-based assay of FXR activation (FXR-UAS-bla HEK 293T beta-lactamase reporter). To be noted: cellular FXR beta-lactamase reporter assay; for Emax: HEK-293T, extent of activation relative to GW4064, read-out: % Efficacy; for EC50: FXR-UAS-bla HEK 293T cells, 16 h, pEC50 = -log EC50. The method, then: FXR activation was measured using a cell line and procedure obtained from Life Technologies (Cat # K1691). FXR-UAS-bla HEK 293T cells contain a human Farnesoid X receptor ligand-binding domain/Gal4 DNA binding domain chimera stably integrated into the CellSensor® UAS-bla HEK 293T cell line. The CellSensor® UAS-bla HEK 293T contains a beta-lactamase reporter gene under control of a UAS response element stably integrated into HEK 293T cells. Activation of FXR by bound ligands results in transcriptional activation of the beta-lactamase reporter gene, which is detected via assay of beta-lactamase activity.
Cells are harvested and diluted into assay medium containing phenol red-free DMEM supplemented with 2% Charcoal-stripped FBS, pyruvate, non-essential amino acids. Cells are then transferred to a 384 well assay plate. Test compounds are dissolved in DMSO and a 3-fold serial dilution series is generated, then further diluted into assay medium. Compounds in assay medium are added to cells in the 384 well plate and allowed to incubate 16 h at 37 C in the presence of 5% CO2.
A FRET-based […] is loaded into cells as its acetomethoxy ester. Intracellular esterases liberate free CCF4, a cephalosporin core linking 7-hydroxycoumarin to fluorescein. In the presence of beta-lactamase activity produced in the presence of FXR agonists, cleavage of CCF4 spatially separates the two dyes and disrupts FRET, so that exciting the coumarin at 409 nm now produces a blue fluorescence signal at 447 nm. The change in FRET signal is plotted against the test compound concentration and fit to a 3-parameter logistical equation. The concentration required to produce 50% activation is expressed as pEC50 (−log EC50), and the extent of activation is expressed relative to GW4064 as % activation.
On the technique in general: A reporter such as luciferase makes a cellular process visible.

Sequence of human Farnesoid X receptor ligand-binding domain/Gal4 DNA binding domain chimera (Q96RI1 262-486, stated change not applied): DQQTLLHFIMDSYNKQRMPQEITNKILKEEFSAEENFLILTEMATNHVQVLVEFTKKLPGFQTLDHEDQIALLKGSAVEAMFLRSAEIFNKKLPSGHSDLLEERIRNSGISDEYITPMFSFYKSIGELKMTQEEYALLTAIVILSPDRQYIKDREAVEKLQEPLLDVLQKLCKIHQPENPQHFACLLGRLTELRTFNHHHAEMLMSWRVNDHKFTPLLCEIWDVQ
Sequence of human Farnesoid X receptor ligand-binding domain/Gal4 DNA binding domain chimera (P04386 1-147 partner): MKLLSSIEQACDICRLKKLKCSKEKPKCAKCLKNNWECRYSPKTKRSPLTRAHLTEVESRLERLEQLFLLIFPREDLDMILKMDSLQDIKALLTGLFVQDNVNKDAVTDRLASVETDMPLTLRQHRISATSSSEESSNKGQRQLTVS
Sequence of ligand binding domain of human FXR (Q96RI1 262-486): as the sequence (Q96RI1 262-486, stated change not applied) above

As to `Cc1cc(C(=O)O)cc2sc(N3C[C@@H]4C[C@H]3C[C@H]4OC(=O)c3c(-c4c(Cl)cccc4Cl)noc3C3CC3)nc12` [Compound I-3, 2-[(1S,4S,5R)-5-[5-cyclopropyl-3-(2,6-dichlorophenyl)-1,2-oxazole-4-carbonyloxy]-2-azabicyclo[2.2.1]heptan-2-yl]-4-methyl-1,3-benzothiazole-6-carboxylic acid], in assay [1], the pEC50 is given as 7.6 and the Emax is 153%. For the same compound, in assay [2], the Emax stood at 123% and a half-maximal effect (EC50) was put at 5.01 nM.
As to `O=C(O)c1cc(C2CC2)c2nc(N3C[C@@H]4C[C@H]3C[C@H]4OC(=O)c3c(-c4c(Cl)cccc4Cl)noc3C3CC3)sc2c1` [Compound I-4, 4-cyclopropyl-2-[(1S,4S,5R)-5-[5-cyclopropyl-3-(2,6-dichlorophenyl)-1,2-oxazole-4-carbonyloxy]-2-azabicyclo[2.2.1]heptan-2-yl]-1,3-benzothiazole-6-carboxylic acid], in assay [1], the pEC50 is on record as 7.3 and the Emax was found to be 166%. In assay [2], the Emax was 112% and the EC50 is 3.16 nM.
As for `O=C(O)c1cc(C(F)(F)F)c2nc(N3C[C@@H]4C[C@H]3C[C@H]4OC(=O)c3c(-c4c(Cl)cccc4Cl)noc3C3CC3)sc2c1` [Compound I-5, 2-[(1S,4S,5R)-5-[5-cyclopropyl-3-(2,6-dichlorophenyl)-1,2-oxazole-4-carbonyloxy]-2-azabicyclo[2.2.1]heptan-2-yl]-4-(trifluoromethyl)-1,3-benzothiazole-6-carboxylic acid], in assay [1], the pEC50 is reported as 7.2 and the Emax was found to be 139%. Besides, in assay [2], the Emax worked out at 102% and the midpoint of the response, the EC50, lay at 39.8 nM.
Turning to `O=C(O)c1cc(OC(F)(F)F)c2nc(N3C[C@@H]4C[C@H]3C[C@H]4OC(=O)c3c(-c4c(Cl)cccc4Cl)noc3C3CC3)sc2c1` [Compound I-6], in assay [1], the pEC50 stood at 7.7 and the Emax came out at 173%. In assay [2], the Emax worked out at 112% and the EC50 was 3.98 nM.
For `O=C(O)c1cc(OCC(F)(F)F)c2nc(N3C[C@@H]4C[C@H]3C[C@H]4OC(=O)c3c(-c4c(Cl)cccc4Cl)noc3C3CC3)sc2c1` [Compound I-7, 2-[(1S,4S,5R)-5-[5-cyclopropyl-3-(2,6-dichlorophenyl)-1,2-oxazole-4-carbonyloxy]-2-azabicyclo[2.2.1]heptan-2-yl]-4-(2,2,2-trifluoroethoxy)-1,3-benzothiazole-6-carboxylic acid], in that order: 7.4, 162%, 119% and 5.01 nM.
For `CCOc1cc(C(=O)O)cc2sc(N3C[C@@H]4C[C@H]3C[C@H]4OC(=O)c3c(-c4c(Cl)cccc4Cl)noc3C3CC3)nc12` [Compound I-8, 2-[(1S,4S,5R)-5-[5-cyclopropyl-3-(2,6-dichlorophenyl)-1,2-oxazole-4-carbonyloxy]-2-azabicyclo[2.2.1]heptan-2-yl]-4-ethoxy-1,3-benzothiazole-6-carboxylic acid], in that order: 7.6, 137%, 106% and 2.51 nM.
As for `O=C(O)c1cc(OC(F)(F)F)c2nc(N3C[C@@H]4C[C@H]3C[C@H]4OC(=O)c3c(-c4ccccc4C(F)(F)F)noc3C3CC3)sc2c1` [Compound I-9, 2-[(1S,4S,5R)-5-{5-cyclopropyl-3-[2-(trifluoromethyl)phenyl]-1,2-oxazole-4-carbonyloxy}-2-azabicyclo[2.2.1]heptan-2-yl]-4-(trifluoromethoxy)-1,3-benzothiazole-6-carboxylic Acid], in assay [1], the pEC50 turned out to be 7.1 and the Emax turned out to be 172%. In addition, in assay [2], the Emax is 107% and the EC50 was 5.01 nM.
For the compound `O=C(O)c1cc(F)c2nc(N3C[C@@H]4C[C@H]3C[C@H]4OC(=O)c3c(-c4c(Cl)cccc4Cl)noc3C3(F)CC3)sc2c1` [Compound I-10, 2-[(1S,4S,5R)-5-[3-(2,6-dichlorophenyl)-5-(1-fluorocyclopropyl)-1,2-oxazole-4-carbonyloxy]-2-azabicyclo[2.2.1]heptan-2-yl]-4-fluoro-1,3-benzothiazole-6-carboxylic Acid], in assay [1], the pEC50 was 7 and the Emax was 145%. Also, in assay [2], the Emax worked out at 111% and the midpoint of the response, the EC50, lay at 25.1 nM.
For the compound `O=C(O)c1cc(F)c2nc(N3C[C@@H]4C[C@H]3C[C@H]4OC(=O)c3c(C45CCC(CC4)CC5)noc3C3CC3)sc2c1` [Compound I-11, 2-[(1S,4S,5R)-5-(3-{bicyclo[2.2.2]octan-1-yl}-5-cyclopropyl-1,2-oxazole-4-carbonyloxy)-2-azabicyclo[2.2.1]heptan-2-yl]-4-fluoro-1,3-benzothiazole-6-carboxylic Acid], in assay [1], the pEC50 is listed as 7.7 and the Emax was 15%. In addition, in assay [2], the Emax amounted to 28% and the EC50 is 251 nM.
For `O=C(O)c1cc(F)c2nc(N3C[C@@H]4C[C@H]3C[C@H]4OCc3c(-c4c(Cl)cccc4Cl)noc3C3CC3)sc2c1` [Compound I-12, 2-[(1S,4S,5R)-5-{[5-cyclopropyl-3-(2,6-dichlorophenyl)-1,2-oxazol-4-yl]methoxy}-2-azabicyclo[2.2.1]heptan-2-yl]-4-fluoro-1,3-benzothiazole-6-carboxylic Acid], in that order: 9, 153%, 122% and 0.1 nM.
On the same counts, the results for `Cc1cc(C(=O)O)cc2sc(N3C[C@@H]4C[C@H]3C[C@H]4OCc3c(-c4c(Cl)cccc4Cl)noc3C3CC3)nc12` [Compound I-13, 2-[(1S,4S,5R)-5-{[5-cyclopropyl-3-(2,6-dichlorophenyl)-1,2-oxazol-4-yl]methoxy}-2-azabicyclo[2.2.1]heptan-2-yl]-4-methyl-1,3-benzothiazole-6-carboxylic acid] are 8.6, 174%, 116% and 0.158 nM.
As to `O=C(O)c1cc(C2CC2)c2nc(N3C[C@@H]4C[C@H]3C[C@H]4OCc3c(-c4c(Cl)cccc4Cl)noc3C3CC3)sc2c1` [Compound I-14, 4-cyclopropyl-2-[(1S,4S,5R)-5-{[5-cyclopropyl-3-(2,6-dichlorophenyl)-1,2-oxazol-4-yl]methoxy}-2-azabicyclo[2.2.1]heptan-2-yl]-1,3-benzothiazole-6-carboxylic acid], in assay [1], the negative-log EC50 (pEC50) came out at 8.6 and the Emax worked out at 146%. Also, in assay [2], the Emax turned out to be 111% and the EC50 is 0.1 nM.
Turning to `O=C(O)c1cc(C(F)(F)F)c2nc(N3C[C@@H]4C[C@H]3C[C@H]4OCc3c(-c4c(Cl)cccc4Cl)noc3C3CC3)sc2c1` [Compound I-15, 2-[(1S,4S,5R)-5-{[5-cyclopropyl-3-(2,6-dichlorophenyl)-1,2-oxazol-4-yl]methoxy}-2-azabicyclo[2.2.1]heptan-2-yl]-4-(trifluoromethyl)-1,3-benzothiazole-6-carboxylic acid], in assay [1], the pEC50 came to 7.8 and the Emax came to 150%. For the same compound, in assay [2], the Emax stood at 104% and the EC50 is 0.251 nM.
For `O=C(O)c1cc(OC(F)(F)F)c2nc(N3C[C@@H]4C[C@H]3C[C@H]4OCc3c(-c4c(Cl)cccc4Cl)noc3C3CC3)sc2c1` [Compound I-16], in that order: 8.8, 174%, 109% and 0.0398 nM.
As for `O=C(O)c1cc(OCC(F)(F)F)c2nc(N3C[C@@H]4C[C@H]3C[C@H]4OCc3c(-c4c(Cl)cccc4Cl)noc3C3CC3)sc2c1` [Compound I-17, 2-[(1S,4S,5R)-5-{[5-cyclopropyl-3-(2,6-dichlorophenyl)-1,2-oxazol-4-yl]methoxy}-2-azabicyclo[2.2.1]heptan-2-yl]-4-(2,2,2-trifluoroethoxy)-1,3-benzothiazole-6-carboxylic acid], in assay [1], the pEC50 is 8.2 and the Emax worked out at 162%. Moreover, in assay [2], the Emax stood at 102% and the EC50 was 0.1 nM.

As a reminder, the pEC50 is the EC50 on a negative log10 scale, so that one unit is a factor of ten. Low values mean a high EC50, high ones a low EC50. What is called EC50 is the concentration giving half of the maximal effect. A low value points to greater potency.
